Measured values from US20240190855A1 (Relay Therapeutics, Inc., priority 2021, published 2024).

target: T1, CDK2/Cyclin E complex (Homo sapiens, UniProt P24941); assay: CDK2/Cyclin E fluorescence-based microfluidic mobility shift assay (CDK2 Biochemical Caliper Assay); conditions: read-out: Biochemical CDK2/CyclinE Caliper IC50
T1 construct: purchased Eurofins 14-475
Procedure, shortened: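 Microfluidic mobility-shift readout after EDTA termination measured phosphorylation of fluorescent FL Peptide 18 (1.5 uM final) in a 20 hr room-temperature reaction. Compounds were tested at 11 concentrations (3-fold).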

Row | IC50 [µM] | Compound
1 | ≤ 0.1 | COCc1cc2c(Nc3cc([C@H]4C[C@@H](OC(=O)NC56CCC(CC5)OC6)CO4)[nH]n3)nccn2n1 [Example 716]
2 | ≤ 0.1 | COCc1cc2c(Nc3cc([C@H]4C[C@@H](OC(=O)NC(C)(C)C#N)CO4)[nH]n3)nccn2n1 [Example 717]
3 | ≤ 0.1 | COCc1cc2c(Nc3cc([C@H]4C[C@@H](COc5[nH]ncc5C(C)C)C4)[nH]n3)nccn2n1 [Example 718]
4 | ≤ 0.1 | COCc1cc2c(Nc3cc([C@@H]4C[C@H](Oc5nncn5C5(C)CC5)CO4)[nH]n3)nccn2n1 [Example 719]
5 | ≤ 0.1 | COCc1cc2c(Nc3cc([C@H]4C[C@@H](OC(=O)N[C@H](C)C(F)(F)F)CO4)[nH]n3)nccn2n1 [Example 720]
6 | ≤ 0.1 | COCc1cc2c(Nc3cc([C@H]4C[C@@H](OC(=O)N[C@@H](C)C(F)(F)F)CO4)[nH]n3)nccn2n1 [Example 721]
7 | ≤ 0.1 | CC1(NC(=O)O[C@H]2CO[C@@H](c3cc(Nc4ncnn5cccc45)n[nH]3)C2)CC1 [Example 722]
8 | ≤ 0.1 | CC1(NC(=O)O[C@H]2CO[C@@H](c3cc(Nc4ccc5c(n4)C(C)(C)NC5=O)n[nH]3)C2)CC1 [Example 723]
9 | ≤ 0.1 | Cn1ncc2cnc(Nc3cc([C@H]4C[C@@H](OC(=O)NC5(C)CC5)CO4)[nH]n3)cc21 [Example 724]
10 | ≤ 0.1 | CC1(NC(=O)O[C@H]2CO[C@@H](c3cc(Nc4ncnc5sncc45)n[nH]3)C2)CC1 [Example 725]
11 | ≤ 0.1 | COCc1cc2c(Nc3cc([C@H]4C[C@@H](OC(=O)C5CCC5(C)C)CO4)[nH]n3)nccn2n1 (stereo partly drawn) [Example 726]
12 | ≤ 0.1 | CC1(NC(=O)O[C@H]2CO[C@@H](c3cc(Nc4ccn5nccc5n4)n[nH]3)C2)CC1 [Example 727]
13 | ≤ 0.1 | C#CC1(NC(=O)O[C@H]2CO[C@@H](c3cc(Nc4nccn5nc(COC)cc45)n[nH]3)C2)CC1 [Example 728]
14 | 0.25 to 1 | CC1(NC(=O)O[C@H]2CO[C@@H](c3cc(Nc4nccc5[nH]cnc45)n[nH]3)C2)CC1 [Example 730]
15 | ≤ 0.1 | CC1(NC(=O)O[C@H]2CO[C@@H](c3cc(Nc4ccc5nccn5n4)n[nH]3)C2)CC1 [Example 732]
16 | 0.1 to 0.25 | COCc1cc2c(Nc3cc([C@H]4C[C@@H](OC(=O)N5CC6CC(C6)C5)CO4)[nH]n3)nccn2n1 [Example 733]
17 | 1 to 100 | Cn1cc2ccnc(Nc3cc([C@H]4C[C@@H](OC(=O)NC5(C)CC5)CO4)[nH]n3)c2n1 [Example 734]
18 | ≤ 0.1 | CC1(NC(=O)O[C@H]2CO[C@@H](c3cc(Nc4nccc5nccn45)n[nH]3)C2)CC1 [Example 735]
19 | ≤ 0.1 | CC[C@H](C)NC(=O)O[C@H]1CO[C@@H](c2cc(Nc3ccc4c(n3)C(C)(C)NC4=O)n[nH]2)C1 [Example 736]
20 | 0.1 to 0.25 | CC1(NC(=O)O[C@H]2CO[C@@H](c3cc(Nc4ccnc5nc[nH]c45)n[nH]3)C2)CC1 [Example 737]
21 | 0.25 to 1 | CC1(NC(=O)O[C@H]2CO[C@@H](c3cc(Nc4ncnc5[nH]ccc45)n[nH]3)C2)CC1 [Example 738]
22 | ≤ 0.1 | C[C@H](NC(=O)O[C@H]1CO[C@@H](c2cc(Nc3ccc4c(n3)C(C)(C)NC4=O)n[nH]2)C1)C1CC1 [Example 740]
23 | 0.1 to 0.25 | COCc1cc2c(Nc3cc([C@H]4C[C@@H](Oc5nncn5C5(C(F)(F)F)CC5)CO4)[nH]n3)nccn2n1 [Example 741]

Row | IC50 [µM] | Compound
24 | ≤ 0.1 | COCc1cc2c(Nc3cc([C@@H]4C[C@H](Oc5nncn5C(C)(C)C)CO4)[nH]n3)nccn2n1 [Example 742]
25 | 1 to 100 | Cn1cnc2c(Nc3cc([C@H]4C[C@@H](OC(=O)NC5(C)CC5)CO4)[nH]n3)nccc21 [Example 743]
26 | 0.1 to 0.25 | CC(C)c1nc(Nc2cc([C@H]3C[C@@H](OC(=O)NC4(C)CC4)CO3)[nH]n2)c2cc[nH]c2n1 [Example 744]
27 | 0.1 to 0.25 | Cn1cc2c(Nc3cc([C@H]4C[C@@H](OC(=O)NC5(C)CC5)CO4)[nH]n3)nccc2n1 [Example 745]
28 | ≤ 0.1 | C[C@H](NC(=O)O[C@H]1CO[C@@H](c2cc(NC(=O)c3cc(COC(F)(F)F)nn3C)n[nH]2)C1)C1CC1 [Example 746]
29 | 0.25 to 1 | Cn1ncc2c(Nc3cc([C@H]4C[C@@H](OC(=O)NC5(C)CC5)CO4)[nH]n3)nccc21 [Example 747]
30 | ≤ 0.1 | CC1(NC(=O)O[C@H]2CO[C@@H](c3cc(Nc4ccnc5nccn45)n[nH]3)C2)CC1 [Example 748]
31 | 0.1 to 0.25 | CC(C)n1cnnc1O[C@H]1CO[C@@H](c2cc(Nc3nccc4nccn34)n[nH]2)C1 [Example 749]
32 | ≤ 0.1 | Cn1nc(COC(F)(F)F)cc1C(=O)Nc1cc([C@H]2C[C@@H](OC(=O)NC34CC(C3)C4)CO2)[nH]n1 [Example 750]
33 | ≤ 0.1 | CC1(C)NC(=O)c2ccc(Nc3cc([C@H]4C[C@@H](OC(=O)NC56CC(C5)C6)CO4)[nH]n3)nc21 [Example 751]
34 | ≤ 0.1 | COCc1cc2c(Nc3cc([C@H]4C[C@@H](OC(=O)N[C@H](C)C(F)F)CO4)[nH]n3)nccn2n1 [Example 752]
35 | ≤ 0.1 | Cn1nc(COC(F)F)cc1C(=O)Nc1cc([C@H]2C[C@@H](OC(=O)NC3(C)CC3)CO2)[nH]n1 [Example 753]
36 | ≤ 0.1 | CC1(NC(=O)O[C@H]2CO[C@@H](c3cc(Nc4nccn5nc(C6CC6)cc45)n[nH]3)C2)CC1 [Example 754]
37 | 0.25 to 1 | CC1(NC(=O)O[C@H]2CO[C@@H](c3cc(Nc4ccn5c(Cl)nnc5n4)n[nH]3)C2)CC1 [Example 755]
38 | 1 to 100 | CN1CCc2c(ccnc2Nc2cc([C@H]3C[C@@H](OC(=O)NC4(C)CC4)CO3)[nH]n2)C1 [Example 758]
39 | ≤ 0.1 | COCc1cc2c(Nc3cc([C@H]4C[C@@H](OC(=O)N[C@@H]5C[C@@H]5C)CO4)[nH]n3)nccn2n1 [Example 759]
40 | 0.25 to 1 | CC1(NC(=O)O[C@H]2CO[C@@H](c3cc(Nc4cc5nccnc5cn4)n[nH]3)C2)CC1 [Example 760]
41 | ≤ 0.1 | CC1(NC(=O)O[C@H]2CO[C@@H](c3cc(Nc4ncnc5ncccc45)n[nH]3)C2)CC1 [Example 761]
42 | 0.1 to 0.25 | CC1(NC(=O)O[C@H]2CO[C@@H](c3cc(Nc4ccc5nccnc5n4)n[nH]3)C2)CC1 [Example 762]
43 | ≤ 0.1 | COCc1cc2c(Nc3cc([C@H]4C[C@@H](OC(=O)N[C@@H](C)C(F)F)CO4)[nH]n3)nccn2n1 [Example 763]
44 | ≤ 0.1 | COCc1cc2c(Nc3cc([C@@H]4C[C@H](OC(=O)NC5(C(F)(F)F)CC5)CO4)[nH]n3)nccn2n1 [Example 764]
45 | ≤ 0.1 | COCc1cc2c(Nc3cc([C@@H]4C[C@H](OC(=O)N[C@H](C)C5CC5)CO4)[nH]n3)nccn2n1 [Example 765]
46 | ≤ 0.1 | COCc1cc2c(Nc3cc([C@@H]4C[C@H](OC(=O)N[C@@H](C)C5CC5)CO4)[nH]n3)nccn2n1 [Example 766]

Row | IC50 [µM] | Compound
47 | ≤ 0.1 | COCc1cc2c(Nc3cc([C@@H]4C[C@H](OC(=O)NC56CC(C5)C6)CO4)[nH]n3)nccn2n1 [Example 767]
48 | ≤ 0.1 | COCc1cc2c(Nc3cc([C@H]4C[C@@H](Oc5[nH]ncc5C(C)(C)C)CO4)[nH]n3)nccn2n1 [Example 768]
49 | ≤ 0.1 | CC1(NC(=O)O[C@H]2CO[C@@H](c3cc(Nc4nccn5nc(C(F)F)cc45)n[nH]3)C2)CC1 [Example 769]
50 | ≤ 0.1 | Cn1nc(C(F)(F)F)cc1C(=O)Nc1cc([C@H]2C[C@@H](OC(=O)NC3(C)CC3)CO2)[nH]n1 [Example 770]
51 | ≤ 0.1 | Cn1nc(COCC(F)(F)F)cc1C(=O)Nc1cc([C@H]2C[C@@H](OC(=O)NC3(C)CC3)CO2)[nH]n1 [Example 771]
52 | ≤ 0.1 | C[C@H](NC(=O)O[C@H]1CO[C@@H](c2cc(NC(=O)c3cc(COC(F)F)nn3C)n[nH]2)C1)C1CC1 [Example 772]
53 | ≤ 0.1 | Cn1nc(COC(F)(F)F)cc1C(=O)Nc1cc([C@@H]2C[C@H](OC(=O)NC3(C)CC3)CO2)[nH]n1 [Example 773]
54 | ≤ 0.1 | CC(C)(C)n1cnnc1O[C@H]1CO[C@@H](c2cc(Nc3nccn4nccc34)n[nH]2)C1 [Example 774]
55 | ≤ 0.1 | COCc1cc2c(Nc3cc([C@H]4C[C@@H](OC(=O)N[C@H]5C[C@H]5C)CO4)[nH]n3)nccn2n1 [Example 775]
56 | ≤ 0.1 | Cn1nc(COC(F)(F)F)cc1C(=O)Nc1cc([C@@H]2C[C@H](OC(=O)NC34CC(C3)C4)CO2)[nH]n1 [Example 776]
57 | ≤ 0.1 | C[C@H](NC(=O)O[C@@H]1CO[C@H](c2cc(NC(=O)c3cc(COC(F)(F)F)nn3C)n[nH]2)C1)C1CC1 [Example 780]
58 | ≤ 0.1 | CC1(NC(=O)O[C@H]2CO[C@@H](c3cc(Nc4nccn5nccc45)n[nH]3)C2)CC1 [Example 781]
59 | ≤ 0.1 | CC1(NC(=O)O[C@@H]2CO[C@H](c3cc(Nc4nccn5nccc45)n[nH]3)C2)CC1 [Example 782]
60 | 1 to 100 | COCc1cc2c(Nc3cc([C@H]4C[C@@H](Oc5nn(C)cc5C(C)(C)C)CO4)[nH]n3)nccn2n1 [Example 783]
61 | ≤ 0.1 | CC(C)n1cnnc1O[C@H]1CO[C@@H](c2cc(Nc3nccn4nccc34)n[nH]2)C1 [Example 784]
62 | ≤ 0.1 | Cn1nc(CC(F)(F)F)cc1C(=O)Nc1cc([C@H]2C[C@@H](OC(=O)NC3(C)CC3)CO2)[nH]n1 [Example 785]
63 | ≤ 0.1 | Cn1nc(C(F)F)cc1C(=O)Nc1cc([C@H]2C[C@@H](OC(=O)NC3(C)CC3)CO2)[nH]n1 [Example 786]
64 | ≤ 0.1 | Cn1nc(OC(F)(F)F)cc1C(=O)Nc1cc([C@H]2C[C@@H](OC(=O)NC3(C)CC3)CO2)[nH]n1 [Example 787]
65 | ≤ 0.1 | Cn1nc(COC(F)(F)F)cc1C(=O)Nc1cc([C@H]2C[C@@H](OC(=O)NC3(C#N)CC3)CO2)[nH]n1 [Example 788]
66 | 1 to 100 | COCc1cc2c(Nc3cc([C@H]4C[C@@H](Oc5nn(C)cc5C(C)C)CO4)[nH]n3)nccn2n1 [Example 790]
67 | ≤ 0.1 | Cn1nc(CCOC(F)(F)F)cc1C(=O)Nc1cc([C@H]2C[C@@H](OC(=O)NC3(C)CC3)CO2)[nH]n1 [Example 791]
68 | 1 to 100 | Cc1cc2c(c(Nc3cc(C4CCCC4)[nH]n3)n1)C(=O)NC2=O [Example 792]
69 | 1 to 100 | c1cn2ncc(Nc3cc(C4CCCC4)[nH]n3)cc2n1 [Example 793]
